The target of the test is T1, sGC α1/β1 heterodimer stably expressed in CHO-K1 cells (CHO-K1/sGC) (Homo sapiens, UniProt Q02108+Q02153).
T1 construct: expressed in transfected cells
T1 sequence (Q02108 1-690): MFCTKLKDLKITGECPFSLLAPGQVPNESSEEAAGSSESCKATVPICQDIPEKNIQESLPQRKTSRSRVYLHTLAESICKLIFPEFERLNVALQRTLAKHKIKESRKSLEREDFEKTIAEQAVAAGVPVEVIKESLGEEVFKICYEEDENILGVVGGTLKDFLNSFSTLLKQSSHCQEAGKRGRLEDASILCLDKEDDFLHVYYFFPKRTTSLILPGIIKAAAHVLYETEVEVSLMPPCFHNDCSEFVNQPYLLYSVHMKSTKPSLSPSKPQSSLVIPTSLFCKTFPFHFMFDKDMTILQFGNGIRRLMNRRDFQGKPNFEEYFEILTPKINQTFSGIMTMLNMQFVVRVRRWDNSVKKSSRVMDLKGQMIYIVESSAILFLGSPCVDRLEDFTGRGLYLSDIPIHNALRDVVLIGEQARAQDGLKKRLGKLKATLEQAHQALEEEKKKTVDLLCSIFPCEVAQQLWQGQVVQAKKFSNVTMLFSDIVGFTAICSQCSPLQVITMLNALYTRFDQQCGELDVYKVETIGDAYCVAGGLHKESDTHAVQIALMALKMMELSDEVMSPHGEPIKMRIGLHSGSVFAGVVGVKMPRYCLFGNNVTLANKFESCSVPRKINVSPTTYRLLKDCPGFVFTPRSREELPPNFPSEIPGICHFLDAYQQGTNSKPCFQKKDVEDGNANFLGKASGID
T1 sequence (Q02153 1-619): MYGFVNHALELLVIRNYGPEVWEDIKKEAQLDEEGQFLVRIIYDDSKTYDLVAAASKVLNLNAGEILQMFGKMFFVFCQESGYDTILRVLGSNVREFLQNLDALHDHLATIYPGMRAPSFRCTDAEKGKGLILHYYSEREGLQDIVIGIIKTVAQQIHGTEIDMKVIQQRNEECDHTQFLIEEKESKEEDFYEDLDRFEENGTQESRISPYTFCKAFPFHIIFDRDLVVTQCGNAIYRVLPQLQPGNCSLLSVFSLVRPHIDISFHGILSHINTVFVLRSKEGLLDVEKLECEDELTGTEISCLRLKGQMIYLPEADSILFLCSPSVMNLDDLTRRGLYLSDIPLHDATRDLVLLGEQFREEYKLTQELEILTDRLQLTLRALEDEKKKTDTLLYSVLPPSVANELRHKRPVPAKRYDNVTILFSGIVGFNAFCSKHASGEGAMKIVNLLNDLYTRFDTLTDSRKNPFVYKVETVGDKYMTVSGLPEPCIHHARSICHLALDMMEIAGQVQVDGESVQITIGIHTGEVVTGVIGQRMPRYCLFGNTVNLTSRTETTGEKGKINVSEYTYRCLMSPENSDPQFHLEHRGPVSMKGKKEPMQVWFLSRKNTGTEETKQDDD
Put plainly: Cell-based sGC Functional Assay (CASA Assay). The note with it: for Emax: CHO-K1, activation as percentage of maximum cGMP production of Compound A (set to 100%), read-out: % Act.; for EC50: inflection point of cGMP generation in CHO-K1/sGC cells, 4P fit, 1 hr at 37° C., read-out: IP. The source says:
sGC is a heme-containing enzyme that converts GTP to secondary messenger cGMP. Increases in cGMP levels affect several physiological processes including vasorelaxation through multiple downstream pathways. […] Heme-dependent activators (HDAs) preferentially activate sGC containing a ferrous heme group. To determine the effect of sGC activators on enzyme activity, the CASA assay was developed to monitor the generation of cGMP in a cell line that stably expresses the heterodimeric sGC protein.
A CHO-K1 cell line stably expressing the sGC α1/β1 heterodimer was generated using a standard transfection protocol. CHO-K1 cells were transfected with plasmids pIREShyghsGCα1 and pIRESneo-hsGCβ1 simultaneously using FUGENE reagent. Clones that stably express both subunits were selected with hygromycin and neomycin for ˜2 weeks. Clone #7 was chosen for the assay and was designated CHO-K1/sGC. CHO-K1/sGC cells were maintained in F-K12 medium containing 10% heat-inactivated Fetal Bovine Serum (FBS), 100 μg/mL penicillin/streptomycin, 0.5 mg/mL hygromycin and 0.25 mg/mL G418. The cells were then cryopreserved in LN2. On the day of the assay, cells thawed and resuspended in EBSS Assay Buffer (EAB, Sigma, E3024) supplemented with 5 mM MgCl2, 10 mM HEPES (4-(2-hydroxyethyl)piperazine-1-ethanesulfonic acid) and 0.05% BSA (bovine serum albumin) and cell density was then adjusted to 4×10^5/mL with EAB. IBMX (3-isobutyl-1-methylxanthin, 0.5 mM) was added to inhibit degradation of cGMP. Compounds were diluted from DMSO stock solutions and added to the assay at a final DMSO concentration of 2.5%. Cells were incubated with compounds in the presence and absence of 1 μM of Diethylenetriamine/nitric oxide adduct (DETA-NO; Sigma, 17018) for 1 hr at 37° C. At the end of the incubation period, the reaction was terminated and the cells were lysed with the detection reagents from Cisbio Kits. The level of intracellular cGMP was determined using an HTRF-based assay kit (CisBio, 62GM2PEC), which detects the displacement of a fluorescence labeled cGMP from its specific antibody. The cGMP produced by test compounds was directly compared to the maximum cGMP production (this value was set to equal 100% activation.) of the published sGC-HDA Compound A:
(Example 1 in WO 2010/065275, published Jun. 10, 2010). The test compounds' activity were then expressed as a percentage of Compound A, the standard in every experiment. This percent activation was calculated either in the presence or absence of DETA-NO which was then plotted. IP and maximum fold induction was derived using ADA analysis software for 4P fit.

Each structure is given as a SMILES string.

Regarding `[2H]C([2H])([2H])n1ncc2c(-c3nc(N)c4c(n3)NC(=O)C4(C)c3ccccn3)nc(CCC(F)(F)C(F)(F)F)nc21` (stereo not shown) [Example 7, 4-Amino-5-methyl-2-(1-(methyl-d3)-6-(3,3,4,4,4-pentafluorobutyl)-1H-pyrazolo[3,4-d]pyrimidin-4-yl)-5-(pyridin-2-yl)-5,7-dihydro-6H-pyrrolo[2,3-d]pyrimidin-6-one], the Emax was determined as 147% and the EC50 turned out to be 212 nM.

`[2H]C([2H])([2H])n1ncc2c(-c3nc(N)c4c(n3)NC(=O)C4(C)c3nc(C4CC4)no3)nc(CCC(F)(F)C(F)(F)F)nc21` (stereo not shown) [Example 8, 4-Amino-5-(3-cyclopropyl-1,2,4-oxadiazol-5-yl)-5-methyl-2-(1-(methyl-d3)-6-(3,3,4,4,4-pentafluorobutyl)-1H-pyrazolo[3,4-d]pyrimidin-4-yl)-5,7-dihydro-6H-pyrrolo[2,3-d]pyrimidin-6-one]: the Emax worked out at 126% and the EC50 came out at 49 nM.

With `[2H]C([2H])([2H])n1ncc2c(-c3nc(N)c4c(n3)NC(=O)C4(C)c3ncccn3)nc(CCC(F)(F)C(F)(F)F)nc21` (stereo not shown) [Example 9, 4-Amino-5-methyl-2-(1-(methyl-d3)-6-(3,3,4,4,4-pentafluorobutyl)-1H-pyrazolo[3,4-d]pyrimidin-4-yl)-5-(pyrimidin-2-yl)-5,7-dihydro-6H-pyrrolo[2,3-d]pyrimidin-6-one], the Emax was 121% and the EC50 was found to be 116 nM.

`[2H]C([2H])([2H])n1ncc2c(-c3nc(N)c4c(n3)NC(=O)C4(C)c3ccc(C(F)(F)F)nc3)nc(CCC(F)(F)C(F)(F)F)nc21` (stereo not shown) [Example 10, 4-Amino-5-methyl-2-(1-(methyl-d3)-6-(3,3,4,4,4-pentafluorobutyl)-1H-pyrazolo[3,4-d]pyrimidin-4-yl)-5-(6-(trifluoromethyl)pyridin-3-yl)-5,7-dihydro-6H-pyrrolo[2,3-d]pyrimidin-6-one]: the Emax worked out at 114% and the EC50 came out at 665 nM.

For `[2H]C([2H])([2H])n1ncc2c(-c3nc(N)c4c(n3)NC(=O)C4(C)c3coc(C)n3)nc(CCC(F)(F)C(F)(F)F)nc21` (stereo not shown) [Example 11, 4-Amino-5-methyl-2-(1-(methyl-d3)-6-(3,3,4,4,4-pentafluorobutyl)-1H-pyrazolo[3,4-d]pyrimidin-4-yl)-5-(2-methyloxazol-4-yl)-5,7-dihydro-6H-pyrrolo[2,3-d]pyrimidin-6-one], the Emax was found to be 126% and the EC50 worked out at 626 nM.

Turning to `[2H]C([2H])([2H])n1ncc2c(-c3nc(N)c4c(n3)NC(=O)C4(C)c3ccc(OC)cn3)nc(CCC(F)(F)C(F)(F)F)nc21` (stereo not shown) [Example 12, 4-Amino-5-(5-methoxypyridin-2-yl)-5-methyl-2-(1-(methyl-d3)-6-(3,3,4,4,4-pentafluorobutyl)-1H-pyrazolo[3,4-d]pyrimidin-4-yl)-5,7-dihydro-6H-pyrrolo[2,3-d]pyrimidin-6-one], the Emax worked out at 104%.

As to `[2H]C([2H])([2H])n1ncc2c(-c3nc(N)c4c(n3)NC(=O)C4(C)c3ccc4cccnc4c3)nc(CCC(F)(F)C(F)(F)F)nc21` (stereo not shown) [Example 13, 4-Amino-5-methyl-2-(1-(methyl-d3)-6-(3,3,4,4,4-pentafluorobutyl)-1H-pyrazolo[3,4-d]pyrimidin-4-yl)-5-(quinolin-7-yl)-5,7-dihydro-6H-pyrrolo[2,3-d]pyrimidin-6-one], the Emax is 89% and the EC50 was 29 nM.

In the case of `[2H]C([2H])([2H])n1ncc2c(-c3nc(N)c4c(n3)NC(=O)C4(C)c3cncc(OC)c3)nc(CCC(F)(F)C(F)(F)F)nc21` (stereo not shown) [Example 14, 4-Amino-5-(5-methoxypyridin-3-yl)-5-methyl-2-(1-(methyl-d3)-6-(3,3,4,4,4-pentafluorobutyl)-1H-pyrazolo[3,4-d]pyrimidin-4-yl)-5,7-dihydro-6H-pyrrolo[2,3-d]pyrimidin-6-one], the Emax came out at 131% and the EC50 is 709 nM.

In the case of `Cn1cc(C2(C3CC3)C(=O)Nc3nc(-c4nc(CCC(F)(F)C(F)(F)F)nc5c4cnn5C)nc(N)c32)cn1` (stereo not shown) [Example 15, 4-Amino-5-cyclopropyl-5-(1-methyl-1H-pyrazol-4-yl)-2-(1-methyl-6-(3,3,4,4,4-pentafluorobutyl)-1H-pyrazolo[3,4-d]pyrimidin-4-yl)-5,7-dihydro-6H-pyrrolo[2,3-d]pyrimidin-6-one], the Emax worked out at 100% and the EC50 is 475 nM.

Regarding `Cn1ncc2c(-c3nc(N)c4c(n3)NC(=O)C4(c3cnoc3)C3CC3)nc(CCC(F)(F)C(F)(F)F)nc21` (stereo not shown) [Example 16, 4-Amino-5-cyclopropyl-5-(isoxazol-4-yl)-2-(1-methyl-6-(3,3,4,4,4-pentafluorobutyl)-1H-pyrazolo[3,4-d]pyrimidin-4-yl)-5,7-dihydro-6H-pyrrolo[2,3-d]pyrimidin-6-one], the Emax turned out to be 107% and the EC50 was 160 nM.

Regarding `CCC1(c2ccc(OC)nc2)C(=O)Nc2nc(-c3nc(CCC(F)(F)C(F)(F)F)nc4c3cnn4C)nc(N)c21` (stereo not shown) [Example 17, 4-Amino-5-ethyl-5-(6-methoxypyridin-3-yl)-2-(1-methyl-6-(3,3,4,4,4-pentafluorobutyl)-1H-pyrazolo[3,4-d]pyrimidin-4-yl)-5,7-dihydro-6H-pyrrolo[2,3-d]pyrimidin-6-one], the Emax stood at 116% and the EC50 turned out to be 122 nM.

On to `[2H]C([2H])([2H])n1ncc2c(-c3nc(N)c4c(n3)NC(=O)C4(C)c3ccnc(C(=O)OC)c3)nc(CCC(F)(F)C(F)(F)F)nc21` (stereo not shown) [Example 18, Methyl 4-(4-amino-5-methyl-2-(1-(methyl-d3)-6-(3,3,4,4,4-pentafluorobutyl)-1H-pyrazolo[3,4-d]pyrimidin-4-yl)-6-oxo-6,7-dihydro-5H-pyrrolo[2,3-d]pyrimidin-5-yl)picolinate], for which the Emax stood at 88% and the EC50 was found to be 411 nM.

In the case of `Cc1nc(C2(C)C(=O)Nc3nc(-c4nc(CCC(F)(F)C(F)(F)F)nc5c4cnn5C)nc(N)c32)no1` (stereo not shown) [Example 20, 4-Amino-5-methyl-5-(5-methyl-1,2,4-oxadiazol-3-yl)-2-(1-methyl-6-(3,3,4,4,4-pentafluorobutyl)-1H-pyrazolo[3,4-d]pyrimidin-4-yl)-5,7-dihydro-6H-pyrrolo[2,3-d]pyrimidin-6-one], the Emax stood at 132% and the EC50 was 103 nM.
